The source of these data is patent US20220041641A1, “QUATERNARY AMMONIUM SALTS AS INHIBITORS OF TRIMETHYLAMINE PRODUCTION” (Senda Biosciences, Inc., priority 2018, published 2022).

Experiment [1] concerns the target CutC from Proteus mirabilis (Proteus mirabilis, UniProt B4EYG1). Description: Cell-based assay for TMA production from a native producer (P. mirabilis). From the text: (§1) In each bacterium, CutC was modified into its activated form by a cognate activating enzyme, CutD (protein EDU36696.1 for C. sporogenes; protein WP_004249185.1 for P. mirabilis). […] Trimethylamine may subsequently be converted by human enzymes such as flavin monooxygenase 3 to trimethylamine N-oxide, which might be associated with negative health consequences in humans.
(§2) A compound's ability to inhibit CutC from Proteus mirabilis and C. sporogenes from converting choline into trimethylamine was tested in cells as described. A BHI blood plate was inoculated with a frozen stock of Proteus mirabilis or Clostridium sporogenes under anaerobic conditions. A single colony was isolated from the plate and inoculated into 5 mL BHI supplemented with 1 mM choline under anaerobic conditions. The liquid cultures were grown overnight at 37° C.
(§3) To prepare each sample, 300 μL of the saturated culture was then inoculated into a 30 mL dilution blank under anaerobic conditions. 1 mM (trimethyl-d9)-choline and a sufficient amount of a compound to obtain a final concentration of 10 μM were added to the inoculated dilution blank. […] The mixture was incubated at 37° C. for 5 h. […] After centrifugation, the samples were analyzed by LCMS to determine the amount of d9-TMA produced.

In experiment [2] the target is CutC from Clostridium sporogenes (Clostridium sporogenes, UniProt A0AAE4Z0A8). Description: Cell-based assay for TMA production from a native producer (C. sporogenes). The following applies: read-out: IC50 Whole cell C. sporogenes; d9-TMA from 1 mM d9-choline, 5 h, 37° C.; run once; value 10 given when no fit or % TMA remaining at 10 μM higher than 15%.
Description: as §1, §2, §3

For experiment [3], the system named is CutC/D enzyme. Description: Acute mouse model (plasma TMAO on choline diet). Type of experiment: in vivo, male C57BL/6 mice. As to the method:
The following acute mouse model may be used to determine inhibition of the CutC/D enzyme and thus the inhibition of the formation of trimethylamine (TMA) from choline.
On day 1, male C57BL/6 mice were given a chemically defined diet (Tekland Global Rodent Diet 2018) containing 1.0% choline (g/g) for the duration of the experiment. Concurrently on day 1, mice were orally gavaged with 200 μL of compounds of interest (formulated in water). Mice were orally gavaged with the compounds and vehicle control again on day 2 and day 3 at a fixed time. Twenty hours after the last gavage, mice were sacrificed, and plasma was collected and prepared for detection of trimethylamine-N-oxide (TMAO) via liquid chromatography with on-line tandem mass spectrometry (LC-MS/MS). Food consumption and mouse weight were measured each day.
Plasma samples were prepared for LCMS as follows: An aliquot of 20 μL plasma sample was protein precipitated with 200 μL internal standard solution (100 ng/mL Labetalol & 100 ng/mL Tolbutamide & 100 ng/mL Diclofenac in acetonitrile, the mixture was vortex-mixed and centrifuged at 4000 rpm for 15 min, 4° C. An aliquot of 100 μL supernatant was transferred to the sample plate for LCMS injection. 1 μL of sample was injected onto an LC column for TMAO LCMS analysis.
Concentrations of TMAO were determined with a calibration curve ranging 0.05-100 μM for d9-TMAO in control plasma.

Where [4] appears, read: d9-TMA from 1 mM d9-choline, 5 h, 37° C.; value 10 given when no fit or % TMA remaining at 10 μM higher than 15%; read-out: Average IC50 Whole cell P. mirabilis.
Where [5] appears, read: Table 4b, 10 mg/kg oral gavage days 1-3.
The mark [6] stands for this setting: Table 4b, 10 mg/kg oral gavage days 1-3, plasma 20 h after last gavage.

Molecules are shown by their SMILES. Where “and” joins values, the source holds several entries; their conditions need not be identical. Identical values can stand only once. Counter-ions that a name gives are not always drawn. Like-named read-outs stand apart in the source and are kept apart here. A value given as a limit tells only on which side of the number the result lay.

Chain of CutC from Proteus mirabilis (B4EYG1 entry or part of it): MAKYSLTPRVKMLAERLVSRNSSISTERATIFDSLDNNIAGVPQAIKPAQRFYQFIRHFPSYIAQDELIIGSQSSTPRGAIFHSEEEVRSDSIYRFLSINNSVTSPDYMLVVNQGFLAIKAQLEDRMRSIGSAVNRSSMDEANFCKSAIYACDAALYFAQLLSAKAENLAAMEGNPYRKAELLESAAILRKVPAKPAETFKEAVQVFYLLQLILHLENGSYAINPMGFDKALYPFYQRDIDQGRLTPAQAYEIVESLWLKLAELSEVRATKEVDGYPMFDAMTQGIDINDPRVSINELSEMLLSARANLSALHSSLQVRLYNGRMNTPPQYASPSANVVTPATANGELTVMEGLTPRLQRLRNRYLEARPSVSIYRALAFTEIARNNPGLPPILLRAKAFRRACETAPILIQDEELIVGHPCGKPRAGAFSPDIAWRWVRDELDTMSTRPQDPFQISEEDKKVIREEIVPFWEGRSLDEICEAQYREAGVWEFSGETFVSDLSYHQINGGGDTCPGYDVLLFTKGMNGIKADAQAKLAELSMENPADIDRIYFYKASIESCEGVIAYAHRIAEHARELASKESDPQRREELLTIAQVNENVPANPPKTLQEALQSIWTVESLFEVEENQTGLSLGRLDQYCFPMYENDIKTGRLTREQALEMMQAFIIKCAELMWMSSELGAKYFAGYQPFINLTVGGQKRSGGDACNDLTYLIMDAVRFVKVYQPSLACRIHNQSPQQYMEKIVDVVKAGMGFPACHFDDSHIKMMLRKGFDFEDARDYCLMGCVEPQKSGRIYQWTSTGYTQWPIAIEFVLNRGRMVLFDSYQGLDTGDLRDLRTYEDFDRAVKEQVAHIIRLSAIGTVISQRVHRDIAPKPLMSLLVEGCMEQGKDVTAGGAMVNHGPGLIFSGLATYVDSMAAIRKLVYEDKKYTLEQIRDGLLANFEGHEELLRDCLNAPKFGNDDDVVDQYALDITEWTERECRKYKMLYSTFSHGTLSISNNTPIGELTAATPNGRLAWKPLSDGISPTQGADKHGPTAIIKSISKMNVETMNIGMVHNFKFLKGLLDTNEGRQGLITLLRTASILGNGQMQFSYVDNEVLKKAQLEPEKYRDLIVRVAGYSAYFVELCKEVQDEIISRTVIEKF
Chain of CutC from Proteus mirabilis (B4EYG0 entry or part of it, further chain): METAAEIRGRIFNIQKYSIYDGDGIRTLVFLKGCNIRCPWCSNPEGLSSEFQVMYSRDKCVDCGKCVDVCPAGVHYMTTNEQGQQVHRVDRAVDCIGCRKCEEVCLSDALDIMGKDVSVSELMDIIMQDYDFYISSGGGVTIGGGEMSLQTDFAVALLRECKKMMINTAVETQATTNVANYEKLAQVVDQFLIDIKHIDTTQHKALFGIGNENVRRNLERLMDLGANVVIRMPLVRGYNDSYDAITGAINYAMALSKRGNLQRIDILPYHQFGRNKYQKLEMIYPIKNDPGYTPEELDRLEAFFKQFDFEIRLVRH
Chain of CutC from Clostridium sporogenes (A0ABD6RTF0 entry or part of it): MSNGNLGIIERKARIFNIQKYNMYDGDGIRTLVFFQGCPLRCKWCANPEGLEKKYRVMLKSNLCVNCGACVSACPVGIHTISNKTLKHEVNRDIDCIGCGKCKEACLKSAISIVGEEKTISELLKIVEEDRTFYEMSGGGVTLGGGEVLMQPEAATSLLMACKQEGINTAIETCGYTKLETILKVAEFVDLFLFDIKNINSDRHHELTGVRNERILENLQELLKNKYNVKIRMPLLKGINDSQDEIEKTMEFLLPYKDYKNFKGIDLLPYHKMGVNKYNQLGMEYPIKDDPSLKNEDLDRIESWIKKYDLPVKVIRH
Chain of CutC from Clostridium sporogenes (A0AAE4Z0A8 entry or part of it): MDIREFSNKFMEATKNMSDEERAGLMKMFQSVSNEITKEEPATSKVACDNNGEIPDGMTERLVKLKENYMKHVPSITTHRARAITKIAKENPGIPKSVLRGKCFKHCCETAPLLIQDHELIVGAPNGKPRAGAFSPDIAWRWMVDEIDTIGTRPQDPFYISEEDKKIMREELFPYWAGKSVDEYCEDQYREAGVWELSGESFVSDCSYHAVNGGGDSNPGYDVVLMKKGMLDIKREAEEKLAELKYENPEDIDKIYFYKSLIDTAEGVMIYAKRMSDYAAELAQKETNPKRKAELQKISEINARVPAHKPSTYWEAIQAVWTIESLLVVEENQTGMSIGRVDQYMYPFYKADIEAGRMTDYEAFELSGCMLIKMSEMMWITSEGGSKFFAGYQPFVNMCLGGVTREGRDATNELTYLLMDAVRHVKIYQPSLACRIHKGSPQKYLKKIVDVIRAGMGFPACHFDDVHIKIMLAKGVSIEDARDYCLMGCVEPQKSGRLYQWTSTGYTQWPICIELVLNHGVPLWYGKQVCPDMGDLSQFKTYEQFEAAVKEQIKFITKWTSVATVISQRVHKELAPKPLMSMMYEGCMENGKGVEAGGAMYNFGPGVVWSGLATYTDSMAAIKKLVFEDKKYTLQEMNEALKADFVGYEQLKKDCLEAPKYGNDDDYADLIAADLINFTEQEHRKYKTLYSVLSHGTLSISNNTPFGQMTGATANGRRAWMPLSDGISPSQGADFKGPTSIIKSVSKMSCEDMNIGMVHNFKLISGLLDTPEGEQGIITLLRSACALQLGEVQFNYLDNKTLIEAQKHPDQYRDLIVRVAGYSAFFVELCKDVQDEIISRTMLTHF

In the case of `C[N+]1(C)CCCC1COCc1ccccc1` (centres unmarked) [Compound 134, 2-[(benzyloxy)methyl]-1,1-dimethylpyrrolidin-1-ium Iodide], the IC50 in experiment [1] (setting [4]) and in experiment [2] was at least 10000 nM each time.
As for `C[N+](C)(CCO)c1ccccc1` [Compound 145], the IC50 is at least 10000 nM in experiment [1] (setting [4]) and 1380 nM in experiment [2].
With `C[N+](C)(C)CCCP(=O)(O)O` [Compound 143, N,N,N-trimethyl-3-phosphonopropan-1-aminium Trifluoroacetatetrifluoroacetatetrifluoroacetatetrifluoroacetatetrifluoroacetate], the IC50 in experiment [1] (read-out: Average IC50 Whole cell P. mirabilis; d9-TMA from 1 mM d9-choline, 5 h, 37° C.; value 10 given when no fit or % TMA remaining at 10 μM higher than 15%) was at least 10000 nM; in experiment [2] it was at least 10000 nM.
For the compound `C#CC[N+](C)(C)CCCO` [Compound 138, N-(3-hydroxypropyl)-N,N-dimethylprop-2-yn-1-aminium Trifluoroacetate], the IC50 came to 1050 nM in experiment [1] (setting [4]) and 5350 nM in experiment [2].
On to `C#CC[N+](C)(C)CC(=O)O[C@H]1O[C@H](COC(C)=O)[C@@H](OC(C)=O)[C@H](OC(C)=O)[C@H]1OC(C)=O.O=C([O-])C(F)(F)F` [Compound 19, N,N-dimethyl-N-(2-oxo-2-(((2R,3R,4S,5R,6R)-3,4,5-triacetoxy-6-(acetoxymethyl)tetrahydro-2H-pyran-2-yl)oxy)ethyl)prop-2-yn-1-aminium trifluoroacetate], for which the IC50 in experiment [1] (setting [4]) is 1730 nM. Further, the “% change from vehicle control + choline diet” value (from here on “% change”) in experiment [3] (Table 4a, 333 mg/kg oral gavage days 1-3) is recorded as −84.29%. Besides, the “Mean plasma TMAO” value in experiment [3] (Table 4a, 333 mg/kg oral gavage days 1-3, plasma 20 h after last gavage) amounted to 5.40 µM.
As to `C#CCC[N+](C)(C)C` [Compound 130], the IC50 in experiment [1] (setting [4]) was 3470 nM; in experiment [2], at least 10000 nM.
The matching figures for `C#CC1CC[N+](C)(C)C1` (centres unmarked) [Compound 137, 3-ethynyl-1,1-dimethylpyrrolidin-1-ium Iodide]: at least 10000 nM and at least 10000 nM.
Regarding `C#CC[N+](C)(C)CCCCO.O=C([O-])C(F)(F)F` [Compound 141, 4-hydroxy-N,N-dimethyl-N-(prop-2-yn-1-yl)butan-1-aminium Trifluoroacetate], the IC50 in experiment [1] (setting [4]) was 5250 nM; in experiment [2], at least 10000 nM. The “% change” value in experiment [3] (setting [5]) is on record as −88.23%. For the same compound, in experiment [3] (setting [6]), the “Mean plasma TMAO” value turned out to be 2.92 µM.
Consider `C#CCn1ccnc1` [Compound Z76, 1-(prop-2-yn-1-yl)-1H-imidazole], for which the IC50 is 4040 nM in experiment [1] (setting [4]) and at least 10000 nM in experiment [2].
On to `C[N+]1(C)CCCC1CO` (centres unmarked) [Compound 110, 2-(hydroxymethyl)-1,1-dimethylpyrrolidin-1-ium Iodide], for which the IC50 in experiment [1] (setting [4]) and in experiment [2] was at least 10000 nM throughout.
On to `C#CC[N+]1(C)CC[C@@H](O)C1` (stereo partly drawn) [Compound 113, (3R)-3-hydroxy-1-methyl-1-(prop-2-yn-1-yl)pyrrolidin-1-ium bromide], for which the IC50 in experiment [1] (setting [4]) turned out to be 700 nM; in experiment [2], 1250 nM.
In the case of `C#CC[N+](C)(C)CCCC(=O)O` [Compound 144, N-(3-carboxypropyl)-N,N-dimethylprop-2-yn-1-aminium Iodide], the IC50 in experiment [1] (setting [4]) was 580 nM; in experiment [2] it was 700 nM.
As for `C[N+]1(C)CC[C@H](O)C1` [Compound 117, (S)-3-hydroxy-1,1-dimethylpyrrolidin-1-ium Iodide], the IC50 in experiment [1] (setting [4]) and in experiment [2] was at least 10000 nM throughout.
Consider `C#CC[N+]1(C)CCC[C@H]1CO` (stereo partly drawn) [Compound 108, (2S)-2-(hydroxymethyl)-1-methyl-1-(prop-2-yn-1-yl)pyrrolidin-1-ium bromide], for which the IC50 came to 2190 nM in experiment [1] (setting [4]) and 2460 nM in experiment [2].
The matching figures for `C[N+](C)(C)CCCC(=O)O` [Compound 127, 3-carboxy-N,N,N-trimethylpropan-1-aminium Iodide]: 5010 nM and at least 10000 nM.
The matching figures for `C#CC[N+]1(C)CC[C@H](O)C1` (stereo partly drawn) [Compound 112, (3S)-3-hydroxy-1-methyl-1-(prop-2-yn-1-yl)pyrrolidin-1-ium bromide]: 550 nM and 280 nM.
The matching figures for `C#CC[N+](C)(C)CCCCC(=O)O` [Compound A51, 4-carboxy-N,N-dimethyl-N-(prop-2-yn-1-yl)butan-1-aminium Bromide]: 1100 nM and 930 nM.
As for `C#CC[N+](C)(C)CC(=C)C(=O)O.[Br-]` [Compound B52, 2-carboxy-N,N-dimethyl-N-(prop-2-yn-1-yl)prop-2-en-1-aminium Bromide], the 50% inhibitory concentration (IC50) in experiment [1] (setting [4]) was 40 nM and 30 nM; in experiment [2] it was 10 nM. For the same compound, the “% change” value in experiment [3] (setting [5]) was 20.76%. For the same compound, the “Mean plasma TMAO” value in experiment [3] (setting [6]) is 30.0 µM.
`C[N+](C)(C)CC#CCO` [Compound 132, 4-hydroxy-N,N,N-trimethylbut-2-yn-1-aminium Chloride]: the IC50 in experiment [1] (setting [4]) and in experiment [2] was at least 10000 nM each time.
For the compound `C[N+]1(C)CC[C@@H](O)C1` [Compound 116, (R)-3-hydroxy-1,1-dimethylpyrrolidin-1-ium Iodide], the IC50 in experiment [1] (setting [4]) and in experiment [2] was at least 10000 nM throughout.
As for `C[S+]([O-])C[N+](C)(C)C` (centres unmarked) [Compound 140, (methanesulfinylmethyl)trimethylazanium Chloride], the IC50 in experiment [1] (setting [4]) and in experiment [2] was at least 10000 nM each time.
In the case of `C#CC[N@@+]1(C)CCC[C@@H]1CO` [Compound 129, (1R,2R)-2-(hydroxymethyl)-1-methyl-1-(prop-2-yn-1-yl)pyrrolidin-1-ium Bromide], the IC50 in experiment [1] (setting [4]) and in experiment [2] was at least 10000 nM in each case.
As to `C[N+](C)(CF)CC(O)O` [Compound 146], the figures for the IC50 in experiment [1] (setting [4]) and in experiment [2] were at least 10000 nM and 1500 nM, respectively.
The matching figures for `C[N+]1(CF)CC[C@H](O)C1` (stereo partly drawn) [Compound 114, (3S)-1-(fluoromethyl)-3-hydroxy-1-methylpyrrolidin-1-ium Iodide]: 2080 nM and 1630 nM.
Consider `C#CC[N+](C)(C)CC(=C)Cl.[Cl-]` [Compound 185, (2-chloroprop-2-en-1-yl)dimethyl(prop-2-yn-1-yl)azanium Chloride], for which, in experiment [1] (setting [4]), the IC50 worked out at 235 nM. The “% change” value in experiment [3] (Table 4e, 123.7 mg/kg oral gavage days 1-3) is on record as −16%. Moreover, the “Mean plasma TMAO” value in experiment [3] (Table 4e, 123.7 mg/kg oral gavage days 1-3, plasma 20 h after last gavage) was 22.2 µM.
As to `C[N+](C)(C)CCNC=O` [Compound 128], the IC50 in experiment [1] (setting [4]) and in experiment [2] was at least 10000 nM in each case.
Turning to `C[N+]1(CF)CCC[C@@H]1CO` (stereo partly drawn) [Compound 151, (2R)-1-(fluoromethyl)-2-(hydroxymethyl)-1-methylpyrrolidin-1-ium Iodide], the 50% inhibitory concentration (IC50) in experiment [1] (setting [4]) is 890 nM. In experiment [3] (Table 4g, 116 mg/kg oral gavage days 1-3), the “% change” value amounted to 6%. In addition, in experiment [3] (Table 4g, 116 mg/kg oral gavage days 1-3, plasma 20 h after last gavage), the “Mean plasma TMAO” value is 29.4 µM.
Take `C[N+]1(CF)CC[C@@H](O)C1` (stereo partly drawn) [Compound 115, (3R)-1-(fluoromethyl)-3-hydroxy-1-methylpyrrolidin-1-ium Iodide]: the IC50 in experiment [1] (setting [4]) turned out to be 2070 nM; in experiment [2], 9850 nM.
The matching figures for `C#CC(C)[N+](C)(C)C` (centres unmarked) [Compound 133]: 660 nM and 440 nM.
